# Test system: rats
# Assay: Conditioned Place Preference (CPP) animal model of opioid-induced euphoria
# Details: subcutaneous, 6 conditioning days of 30 min sessions, preference assessed on day 8, time in drug-paired minus vehicle-paired chamber
# Experimental: It was administered in a volume of 2 ml/kg. […] The oxycodone was administered as the hydrochloride salt form and was dissolved in saline. The subcutaneous volume for each was 2 ml/kg.
# For this Example, a 6 day unbiased, counterbalanced paradigm was employed. Innate preference was tested on day 1 (preconditioning day or baseline). On this day, naïve animals (rats) had free access to all three compartments for 30 minutes. The time spent in each chamber was automatically recorded. For conditioning sessions (days 2-7), animals were randomly assigned to compartment pairings for thirty minutes. During the first conditioning session (day 2), animals were randomly divided. […] Control animals received vehicle plus vehicle during each pairing. This conditioning procedure was replicated over five more days (thirty minute sessions for 6 total conditioning days). On day 8, preference was assessed. Each animal was allowed to roam freely about all three compartments for 30 minutes. The removable doors remained opened. The time spent in each compartment was automatically recorded. Conditioned Place Preference (“CPP”) (seconds) is represented as the difference between the time spent in the drug-paired and vehicle-paired chambers on the test day and is indicative of the rewarding properties associated with the compound(s) studied.
structure (smiles),measurement,value
COc1ccc2c3c1O[C@H]1C(=O)CC[C@@]4(O)[C@@H](C2)N(C)CC[C@]314 [oxycodone],Conditioned Place Preference (CPP) as compared to vehicle treated controls,produces a statistically significant CPP
